Measured values published in patent US20240279215A1 (Cytokinetics, Incorporated, priority 2022, published 2024).

Target: human NAMPT (Homo sapiens (Human), UniProt P43490)
Experiment: NMN fluorescence biochemical assay (human recombinant NAMPT enzyme assay)
Procedure: Compounds described herein were assayed for their ability to stimulate the synthesis of nicotinamide mononucleotide (NMN) by the enzyme NAMPT. The human recombinant enzyme assay measures the activation of the enzyme activity by compounds using recombinant enzyme and substrates in a buffered cell-free system. The assay conditions closely mimic cellular environments. Dose responses were measured using an assay to detect the formation of nicotinamide mono-nucleotide. All experiments were performed in the 384-well format. Generally, 0.5 μL of DMSO containing varying concentrations of the test compound was mixed with 10 μL of the enzyme reagent solution. Enzyme reactions were initiated with the addition of […] containing the substrates. The final assay conditions were as follows: 6 nM human NAMPT, 2.5 mM ATP, 20 μM PRPP and 150 μM nicotinamide in 50 mM HEPES, pH 7.2, 1 mM DTT, 1 mM CHAPS 50 mM NaCl, 100 mM MgCl2. Following an incubation of 60 min at ambient temperature, 10 μL of 20% acetophenone in DMSO was added, followed by 10 μL of 2 M KOH and 40 μL of formic acid. The plates were read for fluorescence (Excitation/Emission=355 nm/460 nm) using an EnVision plate reader after 40 mins of incubation at ambient temperature.

human NAMPT, sequence (P43490 whole entry): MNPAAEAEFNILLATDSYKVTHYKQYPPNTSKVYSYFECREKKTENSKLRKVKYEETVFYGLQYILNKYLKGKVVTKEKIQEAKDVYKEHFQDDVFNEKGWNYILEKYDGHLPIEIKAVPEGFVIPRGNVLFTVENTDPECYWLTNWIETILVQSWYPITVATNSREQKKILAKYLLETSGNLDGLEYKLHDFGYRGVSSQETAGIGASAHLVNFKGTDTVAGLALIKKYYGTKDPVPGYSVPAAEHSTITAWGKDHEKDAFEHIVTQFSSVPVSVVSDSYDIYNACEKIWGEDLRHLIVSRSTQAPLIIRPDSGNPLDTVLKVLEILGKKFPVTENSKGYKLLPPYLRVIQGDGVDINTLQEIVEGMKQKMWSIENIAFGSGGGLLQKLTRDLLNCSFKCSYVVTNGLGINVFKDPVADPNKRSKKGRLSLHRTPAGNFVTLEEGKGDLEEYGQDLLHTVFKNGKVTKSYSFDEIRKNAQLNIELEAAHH

| Structure (SMILES) | AC1.4 Human | EC50 |
| --- | --- | --- |
| CS(=O)(=O)N1CCC2(CC(c3ccc(NC(=O)OCc4cnco4)cc3F)C2)C1 (single isomer, unassigned) [Compound 359] | 0.104 µM | 3.5 µM |
| CS(=O)(=O)N1CCC2(CC(c3ccc(NC(=O)OCc4cnco4)cc3F)C2)C1 (single isomer, unassigned) [Compound 360] | 0.07 µM | 2.33 µM |
| CC(C)C(=O)N1CCC2(CC(c3ccc(NC(=O)OCc4cnco4)cc3F)C2)C1 (single isomer, unassigned) [Compound 361] | 0.08 µM | 10.8 µM |
| CC(C)C(=O)N1CCC2(CC(c3ccc(NC(=O)OCc4cnco4)cc3F)C2)C1 (single isomer, unassigned) [Compound 362] | 0.05 µM | 4.6 µM |
| CN(C)C(=O)N1CCC2(CC(c3ccc(NC(=O)OCc4cnco4)cc3F)C2)C1 (single isomer, unassigned) [Compound 363] | 0.03 µM | 4.49 µM |
| CN(C)C(=O)N1CCC2(CC(c3ccc(NC(=O)OCc4cnco4)cc3F)C2)C1 (single isomer, unassigned) [Compound 364] | 0.07 µM | 3.97 µM |
| CC(=O)N1CCC2(CC(c3ccc(NC(=O)OCc4cnco4)cc3F)C2)C1 (single isomer, unassigned) [Compound 372] | 0.09 µM | 5.64 µM |
| CC(=O)N1CCC2(CC(c3ccc(NC(=O)OCc4cnco4)cc3F)C2)C1 (single isomer, unassigned) [Compound 373] | 0.013 µM | 0.24 µM |
| COc1ccc(COC(=O)Nc2ccc(CN3CCC[C@@H]3c3cccnc3)cc2)cc1 [Compound 1, (4-methoxyphenyl)methyl N-(4-{[(2R)-2-(pyridin-3-yl)pyrrolidin-1-yl]methyl}phenyl)carbamate] | 0.03 µM | 0.44 µM |
| NC(=O)c1ccc(COC(=O)Nc2ccc(CN3CCC[C@@H]3c3cccnc3)cc2)cc1 [Compound 2, (4-carbamoylphenyl)methyl N-(4-{[(2R)-2-(pyridin-3-yl)pyrrolidin-1-yl]methyl}phenyl)carbamate] | 0.05 µM | 0.96 µM |
| O=C(Nc1ccc(CN2CCC[C@@H]2c2cccnc2)cc1)OCc1ccncc1 [Compound 3, pyridin-4-ylmethylN-(4-{[(2R)-2-(pyridin-3-yl)pyrrolidin-1-yl]methyl}phenyl)carbamate] | 0.05 µM | 0.31 µM |
| CN(C)C(=O)N1CCC(c2ccc(NC(=O)OCc3cnco3)cc2)CC1 [Compound 4, oxazol-5-ylmethyl (4-(1-(dimethylcarbamoyl)piperidin-4-yl)phenyl)carbamate] | 0.06 µM | 21.8 µM |
| O=C(Nc1ccc(CN2CCC[C@@H]2c2cccnc2)cc1)OCc1cnco1 [Compound 6, oxazol-5-ylmethyl (R)-(4-((2-(pyridin-3-yl)pyrrolidin-1-yl)methyl)phenyl)carbamate] | 0.07 µM | 0.55 µM |
| CC(C)C(=O)N1CCC(c2ccc(NC(=O)OCc3cnco3)cc2)CC1 [Compound 7, 1,3-oxazol-5-ylmethyl N-{4-[1-(2-methylpropanoyl)piperidin-4-yl]phenyl}carbamate] | 0.11 µM | 20.8 µM |
| Cc1ccc(C(=O)NCc2ccc(NC(=O)OCc3cn[nH]c3)cc2)cn1 [Compound 9, (1H-pyrazol-4-yl)methyl (4-((6-methylnicotinamido)methyl)phenyl)carbamate] | 0.15 µM | 16 µM |
| CNS(=O)(=O)N1CCC(Cc2ccc(NC(=O)OCc3cnco3)cc2)CC1 [Compound 10, oxazol-5-ylmethyl (4-((1-(N-methylsulfamoyl)piperidin-4-yl)methyl)phenyl)carbamate] | 0.16 µM | 11.2 µM |
| COC(=O)N1CCC(Cc2ccc(NC(=O)OCc3cnco3)cc2)CC1 [Compound 11, methyl 4-(4-(((oxazol-5-ylmethoxy)carbonyl)amino)benzyl)piperidine-1-carboxylate] | 0.21 µM | 22.5 µM |
